Source: publication PMC6058716, “Two Odorant-Binding Proteins of the Dark Black Chafer (Holotrichia parallela) Display Preferential Binding to Biologically Active Host Plant Volatiles” (Frontiers in Physiology, 2018)
Read-outs that look alike come from different tables or passages of the source.

How the values were obtained:
[1] = molecular target: HparOBP49 (Holotrichia parallela, UniProt A0A0G2YD95); test: Fluorescence competitive binding assay with 1-NPN probe, recombinant HparOBP49
Method: (§1) Purification was performed via Ni ion affinity chromatography (GE Healthcare, Beijing, China), and the His-tag was removed using enterokinase for HparOBP20 or tobacco etch virus (TEV) protease for HparOBP49.
(§2) We used an F-380 fluorescence spectrophotometer (Tianjin, China) to determine the results of the perform the binding assay at room temperature (25°C). The excitation wavelength was 337 nm, and the emission spectrum was recorded between 390 and 460 nm.

[2] = molecular target: HparOBP20 (Holotrichia parallela, UniProt A0A0G2YKL4); test: Fluorescence competitive binding assay with 1-NPN probe, recombinant HparOBP20
Method: as §1, §2

[3] = system: DBC antennae; test: Electroantennogram (EAG) responses of virgin male/female antennae; set-up: species or system Holotrichia parallela; conditions: 1 μg/μl, corrected with methanol; for EAG response, males: male antennae
Method: The EAG responses of virgin male/female antennae were measured after removing the tips of the three antennal lamellae (at approximately 1 mm) and separating them from each other. The chemicals used for the EAG and behavior assays were diluted in methanol (HPLC grade) to varying concentrations (0.1, 1, and 10 μg/μl), and methanol was used as a control. A 10 μl aliquot of each concentration was applied to a filter paper (25 × 8 mm). EAG responses were recorded for 5 s, with a stimulation interval of 30 s and a flow rate of 4 ml/s for both the stimulant and purge airflow. Each chemical was tested against six antennae, and each antenna was tested with three repeated stimulations. The EAG apparatus consisted of a signal acquisition system (IDAC-4), a micromanipulator assembly (INR-5), a stimulus controller (CS-05), and a system for outputting the EAG results (Syntech Company, Holland).

[4] = system: DBC adults; test: Field evaluation, baited traps; format: in vivo, Holotrichia parallela; conditions: for Male DBCs caught in traps: males, 360 mg per dispenser, mean ± SE, N=3 traps; for Attractant ability in traps: result in words
Method: According to the laboratory evaluation, in addition to the main sex pheromone component, L-leucine methyl ester, (Z)-3-hexenyl acetate was considered as a candidate compound for attracting DBC adults in the field. The tested chemicals were individually dissolved with methanol to 360 mg/ml. A dispenser was constructed using oil-free cotton wool with 360 mg of the tested chemical and stored in a freezer before use. Methanol was employed as a control. The treatments were as follows: • - L-leucine methyl ester alone, 360 mg/ml, 1 ml/dispenser • - (Z)-3-hexenyl acetate alone, 360 mg/ml, 1 ml/dispenser • - methanol alone as control, 99% purity, 1 ml/dispenser All experiments were performed at the experimental station of the Shandong Peanut Research Institute, Lai Xi Wang Cheng, Qingdao, China. Traps were placed in middle of the field, and each trap was located 60 m from any other trap, so that the individual treatments were 60 m apart. To avoid cross-contamination, only one compound was tested at each sub-site at any time, and each compound was tested at only one sub-site ([Isberg et al., 2017]). Each trap was set to operate from 1 h before sunset until 1 h after sunset. Three traps (replicates) were selected for each treatment. The test period was June 1–20, 2017. As a rule, the traps were checked every day, and the individuals that were caught in all experiments were sexed.

[5] = system: DBC adults; test: Y-tube olfactometer behavioral response; format: in vivo, Holotrichia parallela; conditions: 1 μg/μl, T/(T+C); for Selective response rate (%), Male / Selective response rate (%), Female: in Figure 6, letters mark significance
Method: The behavioral responses of female and male adults to the putative ligands were tested using a Y-tube olfactometer in a dark room at 27 ± 1°C. A filter paper (25 × 8 mm) with 10 μl of the test compound was placed at the end of one arm of the Y-tube, with 10 μl of methanol at the end of the other arm (control tube). The airflow was 500 ml/min. Six replicates were performed for each stimulant with 10 healthy virgin adults in the main stem of the Y-tube, and 10 min was allowed for their distribution. The response rate was calculated according to the following equations: response rate = (T+C)/SUM and selective response rate = T/(T+C), where T represents the number of beetles in the treatment tube; C indicates the number of beetles in the control tube; and SUM is the number of beetles tested.

[6] = displacement of 2 μM 1-NPN, 2 μM protein, Tris-HCl pH 7.4, 25°C, read-out: IC50, HparOBP49
[7] = displacement of 2 μM 1-NPN, 2 μM protein, Tris-HCl pH 7.4, 25°C, read-out: IC50, HparOBP20
[8] = calculated from IC50, Ki = [IC50]/(1+[1-NPN]/K1-NPN), read-out: Ki, HparOBP20
[9] = Ki, HparOBP20, calculated from IC50, Ki = [IC50]/(1+[1-NPN]/K1-NPN)

HparOBP49, sequence (A0A0G2YD95 entry or part of it): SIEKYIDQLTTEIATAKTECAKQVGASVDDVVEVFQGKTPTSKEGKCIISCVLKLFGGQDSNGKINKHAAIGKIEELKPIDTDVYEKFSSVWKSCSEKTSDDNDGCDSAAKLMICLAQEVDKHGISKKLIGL
HparOBP20, sequence (A0A0G2YKL4 entry or part of it): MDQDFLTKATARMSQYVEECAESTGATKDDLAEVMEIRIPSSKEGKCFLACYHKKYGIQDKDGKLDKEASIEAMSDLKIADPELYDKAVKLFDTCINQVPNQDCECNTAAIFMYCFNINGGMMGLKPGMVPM

Row | Compound | IC50 [1] [µM] | IC50 [2] [µM] | IC50 [1, 6] [µM] | IC50 [2, 7] [µM] | other results
1 | CCCCCC=O [1-Hexanal] | > 50 | > 50 |  |  | 
2 | CCCCCCO [1-Hexanol] |  |  | > 50 | > 50 | 
3 | Cn1cccc1 [1-Methylpyrrole] |  |  | > 50 | 26.1 | Ki [2, 8]: 21.9 µM
4 | CCCCCCCCO [1-Octanol] |  |  | > 50 | 30.2 | Ki [2, 8]: 25.3 µM
5 | CC(=O)c1ccc(C)c(C)c1 [3′,4′-Dimethylacetophenone] |  |  | > 50 | > 50 | 
6 | CCc1ccc(C(C)=O)cc1 [4′-Ethylacetophenone] | > 50 | > 50 |  |  | 
7 | CCC/C=C/CO [(E)-2-Hexen-1-ol] | > 50 | > 50 |  |  | 
8 | CCC/C=C/C=O [(E)-2-Hexenal] | > 50 | > 50 |  |  | 
9 | CCC/C=C/COC(C)=O [(E)-2-Hexenyl acetate] |  |  | > 50 | 27.8 | Ki [2, 8]: 23.3 µM
10 | CC/C=C/CCO [(E)-3-Hexen-1-ol] | > 50 | 30.3 |  |  | Ki [2, 9]: 25.4 µM
11 | C=C(C)[C@H]1CC=C(C)CC1 [(R)-(+)-Limonene] |  |  | > 50 | 28.7 | Ki [2, 8]: 24 µM
12 | C=C[C@](C)(O)CCC=C(C)C [(R)-(-)-Linalool] |  |  | > 50 | > 50 | 
13 | CC/C=C\CCO [(Z)-3-Hexen-1-ol] | > 50 | 30.1 |  |  | Ki [2, 9]: 25.2 µM
14 | CC/C=C\CCOC(C)=O [(Z)-3-Hexenyl acetate] |  |  | 44.7 | 22.1 | Ki ([1]; calculated from IC50, Ki = [IC50]/(1+[1-NPN]/K1-NPN), read-out: Ki, HparOBP49): 39.7 µM; EAG response, females ([3]; female antennae): 4.84 mV; EAG response, males [3]: 4.02 mV; Male DBCs caught in traps [4]: 83 ± 4.933 DBCs; Ki [2, 8]: 18.5 µM; Selective response rate, females ([5]; females): 98%; Selective response rate (%), Male ([5]; males): 59%
15 | O=Cc1ccccc1 [Benzaldehyde] | > 50 | > 50 |  |  | 
16 | OCc1ccccc1 [Benzyl alcohol] | > 50 | > 50 |  |  | 

Row | Compound | IC50 [1] [µM] | IC50 [2] [µM] | IC50 [1, 6] [µM] | IC50 [2, 7] [µM] | other results
17 | CCCCCCCCCCCC [Dodecane] |  |  | > 50 | 48.5 | Ki [2, 8]: 40.6 µM
18 | CCCCCCCCCCCC=O [Dodecyl aldehyde] |  |  | > 50 | > 50 | 
19 | CC(C)=CCC/C(C)=C/CC/C(C)=C/CO [Farnesol, mixture of isomers, Farnesol] |  |  | > 50 | > 50 | 
20 | CCCCCC(=O)O [Hexanoic acid] | 47.6 | 47.2 |  |  | Ki [1]: 42.2 µM; Ki [2, 9]: 39.5 µM
21 | COC(=O)[C@@H](N)CC(C)C.Cl [L-Leucine methyl ester] |  |  | > 50 | > 50 | EAG response, males [3]: 5.68 mV; Male DBCs caught in traps [4]: 258 ± 12.860 DBCs; Selective response rate (%), Female ([5]; females): 0.20c %; Selective response rate, males ([5]; males): 96%
22 | COC(=O)c1ccccc1 [Methyl benzoate] | > 50 | > 50 |  |  | 
23 | COC(=O)c1ccccc1O [Methyl salicylate] | > 50 | 28.5 |  |  | Ki [2, 9]: 23.8 µM
24 | CCCCCCCCC=O [Nonanal] |  |  | > 50 | > 50 | 
25 | CCCCCCCCC(=O)O [Nonanoic acid] |  |  | > 50 | > 50 | 
26 | CCCCCCCCCCCCCCC [Pentadecane] |  |  | > 50 | 16.5 | Attractant ability in traps [4]: low attractant ability; Ki [2, 8]: 13.8 µM; Selective response rate (%), Female ([5]; females): 67%; Selective response rate (%), Male ([5]; males): 59%
27 | CCCCC=O [Valeraldehyde] |  |  | > 50 | 31.1 | Ki [2, 8]: 26.1 µM
28 | CC1=CC[C@H](C(C)C)C=C1 [α-Phellandrene] | > 50 | 21.1 |  |  | Attractant ability in traps [4]: low attractant ability; Ki [2, 9]: 17.6 µM; Selective response rate (%), Female ([5]; females): 51%; Selective response rate (%), Male ([5]; males): 73%
29 | CC1=CCC2CC1C2(C)C (stereo not drawn) [α-Pinene] | > 50 | 26.8 |  |  | Ki [2, 9]: 22.4 µM
30 | C=C1CC/C=C(\C)CC[C@@H]2[C@@H]1CC2(C)C [β-Caryophyllene] | > 50 | > 50 |  |  | Selective response rate (%), Female ([5]; females): 48%
31 | Farnesene [Farnesene, mixture of isomers] |  |  | > 50 | > 50 | 
32 | Ocimene [Ocimene, mixture of isomers] |  |  | > 50 | > 50 | 
